Measurements: patent US8883169B2, “Immunogen platform” (Chrontech Pharma AB, priority 2007, dated 2014)

Legend:
antibodies to rNS3 = experiment: EIA of antibodies to rNS3 after immunization with rNS3 with or without ribavirin; assay type: in vivo, Balb/c mice
Method: In a first set of experiments, groups of three to five Balb/c mice (BK Universal, Uppsala, Sweden) were immunized i.p or s.c. (e.g., at the base of the tail) with 10 μg or 100 μg of recombinant hepatitis C virus non-structural 3 (rNS3) protein. […] Mice were injected with a total volume of […] per injection.
At two and four weeks following i.p. immunization, all mice were bled by retro-orbital sampling. Serum samples were collected and analyzed for the presence of antibodies to rNS3. To determine the antibody titer, an enzyme immunoassay (EIA) was performed. (See e.g., Hultgren et al., J Gen Virol. 79:2381-91 (1998) and Hultgren et al., Clin. Diagn. Lab. Immunol. 4:630-632 (1997)). The antibody levels were recorded as the highest serum dilution giving an optical density at 405 nm more than twice that of non-immunized mice.
At four, six and eight weeks the mice were bled and serum was separated and frozen. After completion of the study, sera were tested for the levels of antibodies to recombinant NS3, as described above. Mean antibody levels to rNS3 were compared between the groups using Student's t-test (parametric analysis) or Mann-Whitney (non-parametric analysis) and the software package StatView 4.5 (Abacus Concepts, Berkeley, Calif.). […] The values given represent end point titres to recombinant rNS3.
The levels of antibody to the antigen were then determined by EIA.
A second set of experiments was also performed. […] The mice were bled at week six and rNS3-specific IgG levels were determined by EIA as described previously.

antibodies to HBsAg = experiment: EIA of antibody titer to HBsAg after Engerix vaccine with or without ribavirin; assay type: in vivo, mice; settings: 1 mg ribavirin, i.p., booster on week four, bled on week six
From the text: (Engerix, SKB). […] A booster containing the same mixture was given on week four and all mice were bled on week six.

[1] = system: NS3-specific IgG1 and IgG2a antibodies; experiment: EIA of NS3-specific IgG subclasses (IgG1, IgG2a); assay type: in vivo, mice; settings: 10 μg rNS3 with 0.1 or 1.0 mg ribavirin i.p. at weeks 0 and 4, bled at week six
[2] = system: CD4+ T cells of lymph nodes; experiment: In vitro recall assay, CD4+ T cell proliferation by [3H]thymidine incorporation; assay type: cell-based, mice; settings: 100 μg rNS3 mixed with 1 mg ribavirin s.c.; ten days post-immunization; 96 h of culture
Method: This assay can be used with any ribavirin derivative or combinations of ribavirin derivatives to determine the extent that a particular vaccine formulation modulates a cellular immune response. […] The mice were sacrificed ten days post-immunization and their lymph nodes were harvested and drained. In vitro recall assays were then performed. (See e.g., Hultgren et al., J Gen Virol. 79:2381-91 (1998) and Hultgren et al., Clin. Diagn. Lab. Immunol. 4:630-632 (1997)). The amount of CD4^+ T cell proliferation was determined at 96 h of culture by the incorporation of [^3H]thymidine.

[3] = system: NS3/4A-expressing EL-4 lymphoma cells; experiment: In vivo inhibition of growth of NS3/4A-expressing EL-4 tumor cells; settings: C57BL/6 mice immunized only once
Method: To confirm that inhibition of tumor growth using the NS3/4A-expressing EL-4 cell line is fully dependent on an NS3/4A-specific immune response a control experiment was performed. […] Two weeks after the last immunization the mice were challenged with an s.c. injection of 10^6 native EL-4 or NS3/4A-expressing EL-4 cells (NS3/4A-EL-4). An NS3/4A-specific immune response was required for protection, since only the immunized mice were protected against growth of the NS3/4A-EL-4 cell line (FIG. 10A). Thus, this H-2^b-restricted model behaves similarly to the SP2/0 H-2^d restricted model.
As set forth herein, the NS3/4A gene can be used as a vaccine. Although it had been determined that NS3/4A quickly primed in vivo functional CTLs, the effect of therapeutic immunization after the injection of tumor cells was analyzed next. Groups of ten C57BL/6 mice were challenged with 10^6 NS3/4A-EL-4 tumor cells. […]
In vivo challenge of immunized mice with the NS3/4A-expressing SP2/0 myeloma or EL-4 lymphoma cell line was performed according to the method described by Encke et al., supra. […] The kinetics of the tumor growth was determined by measuring the tumor size through the skin at days six to 20. […]
To test the therapeutic effect of the vaccines groups of mice were inoculated with the tumor cells as described above. […] The tumor growth was monitored from day 6 to day 20.

[4] = system: NS3 and birch specific T cells; experiment: ELISpot assay of γ-IFN-secreting CTLs and T helper cells (NS3 and birch specific); assay type: cell-based, C57/BL6 mice; settings: immunized twice, 4 weeks apart; two weeks after the second injection
Method: (§1) Groups of C57/BL6 mice were immunized twice with 50 μg of either plasmid containing a codon optimized NS3/4A gene, a NS3/4A-Betv1 fusion gene containing a protease cleavage site between NS3 and NS4A as well as a protease cleavage site between the NS4A and the birch antigen (SEQ ID NO: 1380), or a NS3/4A-Betv1 fusion gene containing a protease cleavage site between NS3 and NS4A, a protease cleavage site between the NS4A and the birch antigen as well as two additional protease cleavage sites within the birch antigen (SEQ ID NO: 1381) using an electroporation device. Another group of mice were immunized twice with recombinant Betv1 protein (rBetv1) in Freunds incomplete adjuvant. The two immunizations were 4 weeks apart. The mice were sacrificed two weeks after the second immunizations and the lymph nodes and spleens of each group were collected and analyzed.
The presence of γ-IFN-secreting CTLs and T helper (Th) cells to antigens in splenocyte or lymph node cultures were evaluated using a commercially available ELISpot assay. […] The ability of NS3-specific and birch-specific Th and CTLs to produce γ-IFN recalled by a concanavalin-A (con-A) as a positive control, media alone as a negative control, native HBcAg, recombinant HBcAg (rHBcAg), various concentrations of NS3/4A CTL peptide, various concentrations of rNS3, and various concentrations of rBetv1 was analyzed via the ELISpot.

IgE to Betv1 = experiment: ELISA of IgE antibodies on recombinant birch protein; assay type: in vivo, C57/BL6 mice; settings: immunized twice, bled two weeks after the second immunization
Method: as §1, with “bled” for “sacrificed”, “immunizations.” for “immunizations and the lymph nodes and spleens of each group were collected and analyzed.”
Dilutions of the sera were tested on ELISA plates coated with recombinant birch protein. A secondary antibody specific for IgE antibodies was used to detect bound antibody. […] The DNA constructs are thus not allergenic in that they prime a Th1 type response.

NC(=O)c1ncn([C@@H]2O[C@H](CO)[C@@H](O)[C@H]2O)n1 [ribavirin, 1-β-D-ribofuranosyl-1,2,4-triazole-3-carboxamide]
effect on antibody levels, higher doses (1-10 mg) of ribavirin (antibodies to rNS3; 20 μg rNS3, weeks 1 and 3): enhance antibody levels at week three
effect on antibody levels, low doses (<1 mg) of ribavirin (antibodies to rNS3; 20 μg rNS3, weeks 1 and 3): enhance antibody levels at week one but not at week three
antibody titer compared to formulations composed of only rNS3 (antibodies to rNS3; 1 mg of ribavirin and either 10 μg or 100 μg of rNS3, two weeks post-immunization): significantly greater antibody titer
immune response compared to that elicited without ribavirin (antibodies to rNS3; approximately 1 to 3 mg doses of ribavirin): more than 12 times
response to Engerix vaccine (HBsAg and alum) (antibodies to HBsAg): enhanced the response to 2 μg of an existing vaccine
effect on the IgG subclass response in the NS3-specific immune response [1]: does not change the IgG subclass response
T cell proliferative response compared to 100 μg rNS3 in PBS [2]: much greater T cell proliferative response

GAVQNEVTL (Artificial Peptide, NS3/4A H-2D Binding Peptide) [NS3-derived CTL peptide]
protection against growth of NS3/4A-EL-4 tumors after a single immunization [3]: not protected

B1: rBetv1: recombinant Betv1 protein (major Birch allergen) in Freunds incomplete adjuvant (protein, UniProt P15494 2-160, looked up)
Major pollen allergen Bet v …: GVFNYETETTSVIPAARLFKAFILDGDNLFPKVAPQAISSVENIEGNGGPGTIKKISFPEGFPFKYVKDRVDEVDHTNFKYNYSVIEGGPIGDTLEKISNEIKIVATPDGGSILKISNKYHTKGDHEVKAEQVKASKEMGETLLRAVESYLLAHSDAYN
modifications: in Freund's incomplete adjuvant
priming of IFN-γ producing Betv1-specific T cells [4]: fails to do
priming of IgE to Betv1 (IgE to Betv1): shows birch-specific IgE antibodies
